Measurements taken from patent US8715714B2, “Uses of rare earth elements for hair improvement” (Micellbio Co., Ltd., priority 2006, dated 2014).
“Also recorded” adds a separate entry of the source.

What was measured:
Format in all cases: cell-based
tyrosinase [1] = target: T1, tyrosinase (Homo sapiens, UniProt P14679); assay: Activity of tyrosinase in Sk-mel-31 cells; conditions: 10 μg to 1 pg, versus control group, FIG. 7
T1 sequence (P14679 19-529): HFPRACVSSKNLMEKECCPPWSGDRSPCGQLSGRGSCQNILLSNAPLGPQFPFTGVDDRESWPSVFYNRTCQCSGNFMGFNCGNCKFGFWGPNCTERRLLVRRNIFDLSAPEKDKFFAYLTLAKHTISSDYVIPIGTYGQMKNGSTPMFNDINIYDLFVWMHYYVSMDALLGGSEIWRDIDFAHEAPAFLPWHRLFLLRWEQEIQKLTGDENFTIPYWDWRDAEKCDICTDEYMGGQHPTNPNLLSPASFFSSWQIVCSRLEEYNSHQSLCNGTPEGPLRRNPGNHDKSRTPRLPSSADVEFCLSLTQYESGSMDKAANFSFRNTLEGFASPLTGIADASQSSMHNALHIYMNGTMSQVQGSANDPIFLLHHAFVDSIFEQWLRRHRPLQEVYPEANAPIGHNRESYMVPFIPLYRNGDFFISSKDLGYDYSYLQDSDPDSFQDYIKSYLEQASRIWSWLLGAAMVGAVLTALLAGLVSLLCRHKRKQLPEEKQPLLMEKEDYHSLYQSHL
Experimental: (§1) In order to evaluate the effect of promoting black hair formation, the activity of tyrosinase was measured in Sk-mel-31, a human melanoma cell, and B16F10, a mouse melanoma cell. The cells were cultivated in an incubator at 37° C. (5% CO2 and 60% relative humidity) while maintaining a density of 1×10^6 cells/ml for Sk-mel-31 and 2×10^5 cells/ml for B16F10 in RPMI-1640 medium (containing 1% penicillin-streptomycin and 10% fetal bovine serum). The cells were stabilized in the incubator for 24 hours, and the culture medium containing FBS was replaced by FBS-free RPMI-1640. The cells were treated with mixed rare earth elements of 10 μg, 1 μg, 100 ng, 10 ng, 1 ng, 100 pg, […] and 1 pg, respectively, and individual rare earth elements of 10 ng. In order to measure the activity of tyrosinase, the cells were cultivated for a given time, centrifuged (100×g) for 10 minutes, and harvested. […] The cells were placed in an ice bath for one hour, and centrifuged with 40,000×g at 4° C. for 20 minutes to obtain a cell extract. 130 μl of 5 mM L-DOPA (L-3,4-dihydroxyphenylalanine) and 120 μl of 25 mM MBTH (3-methyl-2-benzothiazolinone hydrazone) were added to 250 μl of an analysis buffer containing 100 mM potassium phosphate (pH 7.1), 4% N,N-dimethylformamide and 0.1% (v/v) Triton X-100, and reacted in a thermostat at 37° C. for 5 minutes, and then, 100 μg of the cell extract was added thereto, and further reacted for 2 hours. Then, 500 μl of 1 M perchloric acid was added thereto and the mixture was centrifuged with 9,000×g at room temperature for 20 minutes. Then, the supernatant was taken and absorbance was measured at 505 nm.

tyrosinase [2] = target: T2, tyrosinase (Mus musculus, UniProt P11344); assay: Activity of tyrosinase in B16F10 cells; conditions: 10 μg to 1 pg, versus control group, FIG. 8
T2 sequence (P11344 19-533): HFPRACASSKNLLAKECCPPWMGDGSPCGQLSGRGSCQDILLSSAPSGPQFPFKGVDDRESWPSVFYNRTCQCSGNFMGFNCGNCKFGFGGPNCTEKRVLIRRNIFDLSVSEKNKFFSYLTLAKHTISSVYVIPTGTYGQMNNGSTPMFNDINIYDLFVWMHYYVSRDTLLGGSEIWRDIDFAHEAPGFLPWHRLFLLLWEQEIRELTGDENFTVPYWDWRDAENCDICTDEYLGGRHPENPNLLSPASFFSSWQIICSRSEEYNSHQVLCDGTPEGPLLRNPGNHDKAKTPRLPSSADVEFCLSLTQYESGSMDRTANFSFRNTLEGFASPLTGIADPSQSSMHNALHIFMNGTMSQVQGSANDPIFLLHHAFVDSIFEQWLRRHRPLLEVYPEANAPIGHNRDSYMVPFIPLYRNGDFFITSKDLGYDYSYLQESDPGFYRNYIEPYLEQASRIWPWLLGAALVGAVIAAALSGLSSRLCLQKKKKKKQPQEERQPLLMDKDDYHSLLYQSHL
Experimental: as §1

tyrosinase [3] = assay: Expression of tyrosinase in Sk-mel-31 cells by Western blotting; conditions: human melanoma cell line; versus control group; FIG. 9
Experimental: (§2) Cells were cultivated according to the same process as in Experimental Example 6, and centrifuged (100×g) for 10 minutes to harvest the cells. In order to measure the expression of tyrosinase by Western blotting, 100 μg of the cell extract was resolved on 10% SDS-PAGE, transferred to NC, and then, blocked with TBS containing 5% skim milk. Then, it was reacted with a primary antibody diluted to 1:2,500 (monoclonal anti-tyrosine hydroxylase clone Th-2) and a secondary antibody diluted to 1:5,000 (anti-mouse IgG), respectively, and washed with TBS containing 0.2% Tween-20, and then, photosensitized on an X-ray film using an ECL detection kit. Then, OD values were graphed using an image analysis program of LabWork™ (version 4.4.00.0).

tyrosinase [4] = assay: Expression of tyrosinase in B16F10 cells by Western blotting; conditions: mouse melanoma cell line; versus control group; FIG. 9
Experimental: as §2

[5] = tested on: Sk-mel-31, a human melanoma cell; assay: Melanin production in Sk-mel-31 cells; conditions: human melanoma cell line; versus control group; FIG. 10
Experimental: (§3) Cells were cultivated according to the same process as in Experimental Example 6, and centrifuged (100×g) for 10 minutes to harvest the cells. In order to measure the production of melanin, 200 μg of the cell extract was added to 1 N NaOH (total 1 ml), allowed to stand at room temperature for 30 minutes, and then, absorbance was measured at 400 nm.
(§4) In order to measure the production of melanin, the cells were cultivated and harvested according to the same process as that of Experimental Example 6, and the production of melanin was measured according to the same process as that of Experimental Example 8.

[6] = tested on: B16F10, a mouse melanoma cell; assay: Melanin production in B16F10 cells; conditions: mouse melanoma cell line; versus control group; FIG. 10
Experimental: as §3, §4

[7] = tested on: Mouse embryo fibroblasts NIH 3T3; assay: MTT cell proliferation assay in NIH 3T3 fibroblasts
Experimental: Mouse embryo fibroblasts NIH 3T3 were cultivated in an incubator at 37° C. ([…], 5% CO2 and 60% humidity) while maintaining a density of 2×10^6 or 4×10^6 cells/ml in Dulbecco's modified Eagle's media (DMEM) supplemented with 10% fetal bovine serum (FBS) and 1% penicillin-streptomycin. Cell proliferation was measured by using MTT [3-(3,5-dimethyl-thiazol-2-yl)-2,5-diphenyltetrazolium bromide] assay. For MTT assay, the cells were plated in a 96-well plate at 2×10^3 cells/ml per well, and treated with a culture medium supplemented with 10% FBS. The cells were stabilized in the incubator for 24 hours, the culture medium supplemented with FBS was replaced by FBS-free DMEM, and the cells were treated with mixed rare earth elements of 10 μg, 1 μg, 100 ng, 10 ng, 1 ng, 100 pg, 10 pg and 1 pg, respectively, and individual rare earth elements of 10 ng. Then, the cells were cultivated for a given time, 50 μl per well of MTT (2 mg/l ml sterilized distilled water) was added thereto, and the mixture was reacted for 4 hours. The reaction mixture was treated with DMSO (dimethyl sulfoxide) and shaken for 30 minutes. Absorbance was measured at 540 nm using an ELISA reader (550, Bio-rad).

**Q.** Which tyrosinase activity (tyrosinase [1]) does the source give for `[Er]` [Er, erbium] here?
**A.** substantially the same effect as mixed rare earth elements

**Q.** And the tyrosinase activity (tyrosinase [2])?
**A.** substantially the same effect as mixed rare earth elements

**Q.** And the expression of tyrosinase (tyrosinase [3])?
**A.** substantially the same effect

**Q.** And the expression of tyrosinase (tyrosinase [4])?
**A.** substantially the same effect

**Q.** And the melanin production [5]?
**A.** substantially the same effect

**Q.** And the melanin production [6]?
**A.** substantially the same effect

**Q.** How did the tyrosinase activity (tyrosinase [1]) turn out when `[Yb]` [Yb, ytterbium] was run?
**A.** substantially the same effect as mixed rare earth elements

**Q.** What about the tyrosinase activity (tyrosinase [2]) of the same compound?
**A.** substantially the same effect as mixed rare earth elements

**Q.** And the expression of tyrosinase (tyrosinase [3])?
**A.** substantially the same effect

**Q.** What about the expression of tyrosinase (tyrosinase [4]) of the same compound?
**A.** substantially the same effect

**Q.** And the melanin production [5]?
**A.** substantially the same effect

**Q.** And the melanin production [6]?
**A.** substantially the same effect

**Q.** Which results are given for `[Tb]` [Tb, terbium]?
**A.** tyrosinase activity (tyrosinase [1]): substantially the same effect as mixed rare earth elements; tyrosinase activity (tyrosinase [2]): substantially the same effect as mixed rare earth elements; expression of tyrosinase (tyrosinase [3]): substantially the same effect; expression of tyrosinase (tyrosinase [4]): substantially the same effect; melanin production [5]: substantially the same effect; melanin production [6]: substantially the same effect

**Q.** With `[Ho]` [Ho, holmium] as the compound, how does the tyrosinase activity (tyrosinase [1]) read?
**A.** substantially the same effect as mixed rare earth elements

**Q.** What about the tyrosinase activity (tyrosinase [2]) of the same compound?
**A.** substantially the same effect as mixed rare earth elements

**Q.** And the expression of tyrosinase (tyrosinase [3])?
**A.** substantially the same effect

**Q.** And the expression of tyrosinase (tyrosinase [4])?
**A.** substantially the same effect

**Q.** And the melanin production [5]?
**A.** substantially the same effect

**Q.** And the melanin production [6]?
**A.** substantially the same effect

**Q.** How did the tyrosinase activity (tyrosinase [1]) turn out when `[Pm]` [Pm, promethium] was run?
**A.** substantially the same effect as mixed rare earth elements

**Q.** What about the tyrosinase activity (tyrosinase [2]) of the same compound?
**A.** substantially the same effect as mixed rare earth elements

**Q.** And the expression of tyrosinase (tyrosinase [3])?
**A.** substantially the same effect

**Q.** And the expression of tyrosinase (tyrosinase [4])?
**A.** substantially the same effect

**Q.** And the melanin production [5]?
**A.** substantially the same effect

**Q.** And the melanin production [6]?
**A.** substantially the same effect

**Q.** Which “cell proliferation compared with the non-treated group” value ([7]; 10 μg to 1 pg, FIG. 1) does the source give for `[Ce]` [Ce, cerium] here?
**A.** increased

**Q.** And the “cell proliferation compared with the non-treated group” value ([7]; 10 μg to 1 pg, FIG. 1, maximum)?
**A.** up to 1.69 times

**Q.** And the “cell proliferation compared with the non-treated group” value ([7]; each element of 10 ng, FIG. 2)?
**A.** most greatly increased

**Q.** And the tyrosinase activity (tyrosinase [1])?
**A.** increased; also recorded: substantially the same effect as mixed rare earth elements; also recorded: most greatly increased

**Q.** And the tyrosinase activity (tyrosinase [2])?
**A.** increased; also recorded: substantially the same effect as mixed rare earth elements; also recorded: most greatly increased

**Q.** And the expression of tyrosinase (tyrosinase [3])?
**A.** substantially the same effect; also recorded: most greatly increased

**Q.** What about the melanin production [6] of the same compound?
**A.** substantially the same effect; also recorded: most greatly increased

**Q.** `[Dy]` [Dy, dysprosium] was tested. Which tyrosinase activity (tyrosinase [1]) did it give?
**A.** substantially the same effect as mixed rare earth elements

**Q.** What about the tyrosinase activity (tyrosinase [2]) of the same compound?
**A.** substantially the same effect as mixed rare earth elements

**Q.** And the expression of tyrosinase (tyrosinase [3])?
**A.** substantially the same effect

**Q.** What about the expression of tyrosinase (tyrosinase [4]) of the same compound?
**A.** substantially the same effect

**Q.** And the melanin production [5]?
**A.** substantially the same effect

**Q.** What about the melanin production [6] of the same compound?
**A.** substantially the same effect

**Q.** `[Pr]` [Pr, praseodymium] was tested. Which tyrosinase activity (tyrosinase [1]) did it give?
**A.** substantially the same effect as mixed rare earth elements

**Q.** And the tyrosinase activity (tyrosinase [2])?
**A.** substantially the same effect as mixed rare earth elements

**Q.** What about the expression of tyrosinase (tyrosinase [3]) of the same compound?
**A.** substantially the same effect

**Q.** And the expression of tyrosinase (tyrosinase [4])?
**A.** substantially the same effect

**Q.** What about the melanin production [5] of the same compound?
**A.** substantially the same effect

**Q.** What about the melanin production [6] of the same compound?
**A.** substantially the same effect

**Q.** What does the source list for `[Tm]` [Tm, thulium]?
**A.** tyrosinase activity (tyrosinase [1]): substantially the same effect as mixed rare earth elements; tyrosinase activity (tyrosinase [2]): substantially the same effect as mixed rare earth elements; expression of tyrosinase (tyrosinase [3]): substantially the same effect; expression of tyrosinase (tyrosinase [4]): substantially the same effect; melanin production [5]: substantially the same effect; melanin production [6]: substantially the same effect

**Q.** What does the source list for `[Sc]` [Sc, scandium]?
**A.** tyrosinase activity (tyrosinase [1]): substantially the same effect as mixed rare earth elements; tyrosinase activity (tyrosinase [2]): substantially the same effect as mixed rare earth elements; expression of tyrosinase (tyrosinase [3]): substantially the same effect; expression of tyrosinase (tyrosinase [4]): substantially the same effect; melanin production [5]: substantially the same effect; melanin production [6]: substantially the same effect

**Q.** With `[Y]` [Y, yttrium] as the compound, how does the tyrosinase activity (tyrosinase [1]) read?
**A.** substantially the same effect as mixed rare earth elements

**Q.** And the tyrosinase activity (tyrosinase [2])?
**A.** substantially the same effect as mixed rare earth elements

**Q.** And the expression of tyrosinase (tyrosinase [3])?
**A.** substantially the same effect

**Q.** And the expression of tyrosinase (tyrosinase [4])?
**A.** substantially the same effect

**Q.** And the melanin production [5]?
**A.** substantially the same effect

**Q.** And the melanin production [6]?
**A.** substantially the same effect
